Experimental findings from patent US3956495A, “2,4-Diaminoquinazolines as antithrombotic agents” (Eli Lilly and Company, priority 1973, dated 1976) are described below.

Counter-ions that a name gives are not always drawn.

Experiment [1] concerns collagen-induced aggregation (platelet). The experiment in a line: Collagen-induced platelet aggregation inhibition, in vitro test (Table I). The class given is cell-based. The following applies: for inhibition at 41.7 µg/mL: 41.7 μg/ml; for inhibition at 10.4 µg/mL: 10.4 μg/ml; for inhibition at 167 µg/mL: 167 μg/ml. An excerpt: (§1) Exp. Biol. Med., 135, 100 (1970), and references cited therein.

Experiment [2] has as its system ADP-induced aggregation (platelet). Kind of experiment: ADP-induced platelet aggregation inhibition, in vitro test (Table I). The format is cell-based. Conditions: for inhibition at 167 µg/mL: 167 μg/ml.
Source text: as §1

The test system of experiment [3] is platelet aggregation to collagen challenge. Kind of experiment: Platelet aggregation inhibition to collagen challenge, in vivo-in vitro test after oral administration (Table II). On the set-up: species or system guinea pig. Conditions: stock suspension 1:4, blood one hour and three hours after dosing. As to the method: Briefly, the test procedure is as follows: blood samples are obtained from a guinea pig prior to the oral administration of the test compound. The test compound when is administered orally and blood samples withdrawn one hour and three hours after dosing. Each blood sample is treated as described in the in vitro test. The test requires one control group of six animals and six animals per compound per dose. For a more detailed description, see Herrmann et al., Proc. Soc. Exp. Biol. Med., 139, 548 (1972).

Where [4] appears, read: Platelet, collagen stock suspension 1:4.
Where [5] appears, read: Platelet, 83.4 μg/ml, collagen stock suspension 1:4.
Where [6] appears, read: Platelet, collagen stock solution 1:32.

On to `CN(C)c1nc(N(C)C)c2ccccc2n1` [2,4-bis(dimethylamino)quinazoline], for which the inhibition at 41.7 µg/mL in experiment [1] (setting [4]) was no less than 20%. With `CN1CCN(c2nc(N3CCOCC3)nc3ccccc23)CC1` [2-morpholino-4-(4-methylpiperazinyl)quinazoline dihydrochloride, dihydrate], the inhibition at 41.7 µg/mL in experiment [1] (setting [4]) is no less than 20%.

For the compound `c1ccc2c(NC34CC5CC(CC(C5)C3)C4)nc(N3CCOCC3)nc2c1` [2-morpholino-4-(1-adamantylamino)quinazoline hydrochloride], in experiment [1] (setting [5]), the inhibition at 83.4 µg/mL was no less than 20%. Consider `c1ccc2c(N3CCOCC3)nc(N3CCOCC3)nc2c1` [2,4-bismorpholinoquinazoline], for which the inhibition at 10.4 µg/mL in experiment [1] (setting [4]) was 35%. The inhibition at 5.2 µg/mL in experiment [2] (5.2 μg/ml) was determined as 51%. In experiment [1] (setting [4]), `Nc1nc(N2CCOCC2)nc2ccccc12` [2-morpholino-4-aminoquinazoline] displayed an inhibition at 41.7 µg/mL of no less than 20%. In experiment [1] (Platelet, collagen stock suspension undiluted), `CCN(CC)CCNc1nc(N2CCCC2)nc2ccccc12` [2-pyrrolidinyl-4-(2-diethylaminoethylamino)quinazoline] displayed an inhibition at 10.4 µg/mL of no less than 20%. For the same compound, the inhibition at 20.8 µg/mL in experiment [1] (Platelet, 20.8 μg/ml, collagen stock suspension 1:4) is no less than 20%. For `CN1CCN(c2nc(N3CCOCC3)c3ccccc3n2)CC1` [2-(4-methylpiperazinyl)-4-morpholinoquinazoline], in experiment [1] (Platelet, 2.6 μg/ml, collagen stock solution 1:32), 2.6 µg/mL produced 30% inhibition. In experiment [2] (83 μg/ml), this compound yielded an inhibition at 83 µg/mL of 44%. `Clc1ccc2nc(N3CCOCC3)nc(N3CCOCC3)c2c1` [2,4-bismorpholino-6-chloroquinazoline]: the results for the inhibition at 167 µg/mL in experiment [1] (setting [6]) and in experiment [2] were 25% and 3%, respectively. `CCN(CC)c1nc(N2CCOCC2)nc2ccccc12` [2-morpholino-4-diethylaminoquinazoline, 2-morpholino-4-diethylaminoquinazoline hydrochloride] displayed an inhibition at 10.4 µg/mL in experiment [1] (setting [4]) of no less than 20%. As to `Cc1ccc2nc(N3CCCCC3)nc(N3CCCCC3)c2c1` [2,4-bispiperidino-6-methylquinazoline], the inhibition at 167 µg/mL stood at 21% in experiment [1] (setting [6]) and 5% in experiment [2].

In experiment [1] (setting [4]), `CCN(CC)CCNc1nc(N2CCOCC2)nc2ccccc12` [2-morpholino-4-(2-diethylaminoethylamino)quinazoline hydrochloride] displayed an inhibition at 41.7 µg/mL of no less than 20%. This compound also registered an inhibition at 100 mg/kg in experiment [3] (Cavia porcellus, Platelet, 100 mg/kg) of no less than 20%.

Consider `NCCNc1nc(N2CCOCC2)c2ccccc2n1` [2-(2-aminoethylamino)-4-morpholinoquinazoline dihydrochloride], for which the inhibition at 83.4 µg/mL in experiment [1] (setting [5]) was no less than 20%. Same read-out and setting: the result for `CN1CCN(c2nc(N)c3ccccc3n2)CC1` [2-(4-methylpiperazinyl)-4-aminoquinazoline hydrochloride] reads no less than 20%. In the case of 2,4-bispyrrolidinylquinazoline, the “% Inhibition of Aggregation, Collagen” value is no less than 20% in experiment [1] (2.6 μg/ml, collagen stock suspension undiluted) and no less than 20% in experiment [1] (83.4 μg/ml, collagen stock suspension 1:4). Moreover, in experiment [3] (12.5 mg/kg), the “% Inhibition of Aggregation to Collagen Challenge” value is on record as no less than 20%.

In turn, `c1ccc2c(N3CCCCC3)nc(N3CCCCC3)nc2c1` [2,4-bispiperidinoquinazoline] registered an inhibition at 41.7 µg/mL in experiment [1] (setting [4]) of no less than 20%. Moreover, the inhibition at 50 mg/kg in experiment [3] (Cavia porcellus, Platelet, 50 mg/kg) was no less than 20%. With `Clc1ccc2nc(N3CCCCC3)nc(N3CCCCC3)c2c1` [2,4-bispiperidino-6-chloroquinazoline], the inhibition at 167 µg/mL in experiment [1] (setting [6]) was 91%; in experiment [2], 61%.

`Cc1ccc2nc(N3CCOCC3)nc(N3CCOCC3)c2c1` [2,4-bismorpholino-6-methylquinazoline]: the inhibition at 167 µg/mL in experiment [1] (setting [6]) is 62%; in experiment [2] it was 29%.
